From patent publication EP4617278A1, “NUCLEOTIDE ANALOG, AND COMPOSITION AND USE THEREOF” (priority 2022, dated 2024) come the findings set out here.

The test system of this assay is SARS-CoV-2 replicon. The class given is cell-based. As to conditions: read-out: SARS-CoV-2 Replicon (Huh-7cell) EC50. On the technique in general: Replicon systems follow genome replication, usually without infectious particles.

pEC50: −log10 of the molar value.

By pEC50 is commonly meant the EC50 on a negative log10 scale, so that one unit is a factor of ten. Take `CCC(CC)COC(=O)[C@H](C)N[P@@](=O)(OCOC(=O)C(C)(C)C)OC[C@H]1O[C@@](C#N)(c2ccc3c(N)ncnn23)[C@H](OC(=O)C(C)C)[C@@H]1OC(=O)C(C)C` [Compound 11b, (2R,3R,4R,5R)-2-(4-aminopyrrolo[2,1-f][1,2,4]triazin-7-yl)-2-cyano-5-((((S)-(((S)-1-(2-ethylbutoxy)-1-oxopropan-2-yl)amino)((pivaloyloxy)methoxy)phosphoryl)oxy)methyl)tetrahydrofuran-3,4-diyl bis(2-methylpropionate)]: the pEC50 is above 8.30.

`CCC(CC)COC(=O)[C@H](C)N[P@](=O)(OCOC(=O)C(C)(C)C)OC[C@H]1O[C@@](C#N)(c2ccc3c(N)ncnn23)[C@H](OC(=O)C(C)(C)C)[C@@H]1OC(=O)C(C)(C)C` [Compound 12a, (2R,3R,4R,5R)-2-(4-aminopyrrolo[2,1-f][1,2,4]triazin-7-yl)-2-cyano-5-((((R)-(((S)-1-(2-ethylbutoxy)-1-oxopropan-2-yl)amino)((pivaloyloxy)methoxy)phosphoryl)oxy)methyl)tetrahydrofuran-3,4-diyl bis(2,2-dimethylpropionate)]: the pEC50 was 6.30 to 7.30.

`CCC(CC)COC(=O)[C@H](C)N[P@@](=O)(OCOC(=O)C(C)(C)C)OC[C@H]1O[C@@](C#N)(c2ccc3c(N)ncnn23)[C@H](OC(=O)C(C)(C)C)[C@@H]1OC(=O)C(C)(C)C` [Compound 12b, (2R,3R,4R,5R)-2-(4-aminopyrrolo[2,1-f][1,2,4]triazin-7-yl)-2-cyano-5-((((S)-(((S)-1-(2-ethylbutoxy)-1-oxopropan-2-yl)amino)((pivaloyloxy)methoxy)phosphoryl)oxy)methyl)tetrahydrofuran-3,4-diyl bis(2,2-dimethylpropionate)]: the pEC50 was 6.30 to 7.30.

Take `CC(C)OC(=O)OCO[P@@](=O)(N[C@@H](C)C(=O)OC1CCC1)OC[C@H]1O[C@@](C#N)(c2ccc3c(N)ncnn23)[C@H](OC(=O)C(C)C)[C@@H]1OC(=O)C(C)C` [Compound 13a, (2R,3R,4R,5R)-2-(4-aminopyrrolo[2,1-f][1,2,4]triazin-7-yl)-2-cyano-5-((((R)-(((S)-1-cyclobutoxy-1-oxopropan-2-yl)amino)(((isopropoxycarbonyl)oxy)methoxy)phosphoryl)oxy)methyl)tetrahydrofuran-3,4-diyl bis(2-methylpropionate)]: the negative logarithm of the EC50 (pEC50) is above 8.30.

Consider `CC(C)OC(=O)OCO[P@](=O)(N[C@@H](C)C(=O)OC1CCC1)OC[C@H]1O[C@@](C#N)(c2ccc3c(N)ncnn23)[C@H](OC(=O)C(C)C)[C@@H]1OC(=O)C(C)C` [Compound 13b, (2R,3R,4R,5R)-2-(4-aminopyrrolo[2,1-f][1,2,4]triazin-7-yl)-2-cyano-5-((((S)-(((S)-1-cyclobutoxy-1-oxopropan-2-yl)amino)(((isopropoxycarbonyl)oxy)methoxy)phosphoryl)oxy)methyl)tetrahydrofuran-3,4-diyl bis(2-methylpropionate)], for which the negative-log EC50 (pEC50) was above 8.30.

As for `CCC(CC)COC(=O)[C@H](C)N[P@](=O)(OCc1ccccc1C)OC[C@H]1O[C@@](C#N)(c2ccc3c(N)ncnn23)[C@H](OC(=O)C(C)C)[C@@H]1OC(=O)C(C)C` [Compound 16a, (2R,3R,4R,5R)-2-(4-aminopyrrolo[2,1-f][1,2,4]triazin-7-yl)-2-cyano-5-((((S)-(((S)-1-(2-ethylbutoxy)-1-oxopropan-2-yl)amino)((2-methylbenzyl)oxy)phosphoryl)oxy)methyl)tetrahydrofuran-3,4-diyl bis(2-methylpropionate)], the negative-log EC50 (pEC50) was 6.30 to 7.30.

Turning to `CCC(CC)COC(=O)[C@H](C)N[P@@](=O)(OCc1ccccc1C)OC[C@H]1O[C@@](C#N)(c2ccc3c(N)ncnn23)[C@H](OC(=O)C(C)C)[C@@H]1OC(=O)C(C)C` [Compound 16b, (2R,3R,4R,5R)-2-(4-aminopyrrolo[2,1-f][1,2,4]triazin-7-yl)-2-cyano-5-((((R)-(((S)-1-(2-ethylbutoxy)-1-oxopropan-2-yl)amino)((2-methylbenzyl)oxy)phosphoryl)oxy)methyl)tetrahydrofuran-3,4-diyl bis(2-methylpropionate)], the negative logarithm of the EC50 (pEC50) is 6.30 to 7.30.

Consider `CC(=O)O[C@H]1[C@@H](OC(C)=O)[C@](C#N)(c2ccc3c(N)ncnn23)O[C@@H]1COP(=O)(OCOC(=O)OC(C)C)OCOC(=O)OC(C)C` [Compound 17, (2R,3R,4R,5R)-2-(4-aminopyrrolo[2,1-f][1,2,4]triazin-7-yl)-5-((((bis(((isopropoxycarbonyl)oxy)methoxy)phosphoryl))oxy)methyl)-2-cyanotetrahydrofuran-3,4-diyl diacetate], for which the pEC50 was above 8.30.

On to `CCC(=O)O[C@H]1[C@@H](OC(=O)CC)[C@](C#N)(c2ccc3c(N)ncnn23)O[C@@H]1COP(=O)(OCOC(=O)OC(C)C)OCOC(=O)OC(C)C` [Compound 18, (2R,3R,4R,5R)-2-(4-aminopyrrolo[2,1-f][1,2,4]triazin-7-yl)-5-((((bis(((isopropoxycarbonyl)oxy)methoxy))phosphoryl)oxy)methyl)-2-cyanotetrahydrofuran-3,4-diyl dipropionate], for which the negative-log EC50 (pEC50) is above 8.30.

With `CC(C)OC(=O)OCOP(=O)(OCOC(=O)OC(C)C)OC[C@H]1O[C@@](C#N)(c2ccc3c(N)ncnn23)[C@H](OC(=O)C(C)C)[C@@H]1OC(=O)C(C)C` [Compound 19, (2R,3R,4R,5R)-2-(4-aminopyrrolo[2,1-f][1,2,4]triazin-7-yl)-5-((((bis(((isopropoxycarbonyl)oxy)methoxy))phosphoryl)oxy)methyl)-2-cyanotetrahydrofuran-3,4-diyl bis(2-methylpropionate)], the negative logarithm of the EC50 (pEC50) is above 8.30.

On to `CC(C)OC(=O)OCOP(=O)(OCOC(=O)OC(C)C)OC[C@H]1O[C@@](C#N)(c2ccc3c(N)ncnn23)[C@H](OC(=O)C(C)(C)C)[C@@H]1OC(=O)C(C)(C)C` [Compound 20, (2R,3R,4R,5R)-2-(4-aminopyrrolo[2,1-f][1,2,4]triazin-7-yl)-5-((((bis(((isopropoxycarbonyl)oxy)methoxy))phosphoryl)oxy)methyl)-2-cyanotetrahydrofuran-3,4-diyl bis(2,2-dimethylpropionate)], for which the negative-log EC50 (pEC50) is 7.30 to 8.00.

Consider `[2H]c1cc([C@]2(C#N)O[C@H](COP(=O)(OCOC(=O)OC(C)C)OCOC(=O)OC(C)C)[C@@H](OC(=O)C(C)C)[C@H]2OC(=O)C(C)C)n2ncnc(N)c12` [Compound 21, (2R,3R,4R,5R)-2-(4-amino-5-deuteriopyrrolo[2,1-f][1,2,4]triazin-7-yl)-5-((((bis(((isopropoxycarbonyl)oxy)methoxy))phosphoryl)oxy)methyl)-2-cyanotetrahydrofuran-3,4-diyl bis(2-methylpropionate)], for which the pEC50 was above 8.30.

Consider `CC(=O)O[C@H]1[C@@H](OC(C)=O)[C@](C#N)(c2ccc3c(N)ncnn23)O[C@@H]1CO[P@](=O)(OCOC(=O)OC(C)C)Oc1ccc(C(C)(C)C)cc1` [Compound 22a, (2R,3R,4R,5R)-2-(4-aminopyrrolo[2,1-f][1,2,4]triazin-7-yl)-5-((((S)-(4-tert-butylphenoxy)(((isopropoxycarbonyl)oxy)methoxy)phosphoryl)oxy)methyl)-2-cyanotetrahydrofuran-3,4-diyl diacetate], for which the pEC50 is above 8.30.

As to `CC(=O)O[C@H]1[C@@H](OC(C)=O)[C@](C#N)(c2ccc3c(N)ncnn23)O[C@@H]1CO[P@@](=O)(OCOC(=O)OC(C)C)Oc1ccc(C(C)(C)C)cc1` [Compound 22b, ((2R,3R,4R,5R)-2-(4-aminopyrrolo[2,1-f][1,2,4]triazin-7-yl)-5-((((R)-(4-tert-butylphenoxy)(((isopropoxycarbonyl)oxy)methoxy)phosphoryl)oxy)methyl)-2-cyanotetrahydrofuran-3,4-diyl diacetate], the pEC50 was 8.00 to 8.30.

Take `CCC(=O)O[C@H]1[C@@H](OC(=O)CC)[C@](C#N)(c2ccc3c(N)ncnn23)O[C@@H]1CO[P@](=O)(OCOC(=O)OC(C)C)Oc1ccc(C(C)(C)C)cc1` [Compound 23a, (2R,3R,4R,5R)-2-(4-aminopyrrolo[2,1-f][1,2,4]triazin-7-yl)-5-((((S)-(4-tert-butylphenoxy)(((isopropoxycarbonyl)oxy)methoxy)phosphoryl)oxy)methyl)-2-cyanotetrahydrofuran-3,4-diyl dipropionate]: the negative logarithm of the EC50 (pEC50) was above 8.30.

For the compound `CCC(=O)O[C@H]1[C@@H](OC(=O)CC)[C@](C#N)(c2ccc3c(N)ncnn23)O[C@@H]1CO[P@@](=O)(OCOC(=O)OC(C)C)Oc1ccc(C(C)(C)C)cc1` [Compound 23b, ((2R,3R,4R,5R)-2-(4-aminopyrrolo[2,1-f][1,2,4]triazin-7-yl)-5-((((R)-(4-tert-butylphenoxy)(((isopropoxycarbonyl)oxy)methoxy)phosphoryl)oxy)methyl)-2-cyanotetrahydrofuran-3,4-diyl dipropionate], the pEC50 was 8.00 to 8.30.

With `CC(C)OC(=O)OCO[P@@](=O)(OC[C@H]1O[C@@](C#N)(c2ccc3c(N)ncnn23)[C@H](OC(=O)C(C)C)[C@@H]1OC(=O)C(C)C)Oc1ccc(C(C)(C)C)cc1` [Compound 24a, (2R,3R,4R,5R)-2-(4-aminopyrrolo[2,1-f][1,2,4]triazin-7-yl)-5-((((S)-(4-tert-butylphenoxy)(((isopropoxycarbonyl)oxy)methoxy)phosphoryl)oxy)methyl)-2-cyanotetrahydrofuran-3,4-diyl bis(2-methylpropionate)], the pEC50 was above 8.30.

Take `CC(C)OC(=O)OCO[P@](=O)(OC[C@H]1O[C@@](C#N)(c2ccc3c(N)ncnn23)[C@H](OC(=O)C(C)C)[C@@H]1OC(=O)C(C)C)Oc1ccc(C(C)(C)C)cc1` [Compound 24b]: the pEC50 was 7.30 to 8.00.

As for `CC(C)C(=O)OCO[P@@](=O)(OC[C@H]1O[C@@](C#N)(c2ccc3c(N)ncnn23)[C@H](OC(=O)C(C)C)[C@@H]1OC(=O)C(C)C)Oc1ccc(C(C)(C)C)cc1` [Compound 26a, (2R,3R,4R,5R)-2-(4-aminopyrrolo[2,1-f][1,2,4]triazin-7-yl)-5-((((S)-(4-tert-butylphenoxy)((isobutyryloxy)methoxy)phosphoryl)oxy)methyl)-2-cyanotetrahydrofuran-3,4-diyl bis(2-methylpropionate)], the pEC50 was 8.00 to 8.30.
